Measurements as given in ChEMBL document CHEMBL6083182, “Development of Peptide Paratope Mimics Derived from the Anti-ROR1 Antibody and Long-Acting Peptide-Drug Conjugates for Targeted Cancer Therapy” (J Med Chem, 2024).
Each block holds one compound with its values, some of them ahead of it. Calls of active or inactive are those of the source. The calls are words filed in the database; no cut-off is given here.

Tests used:
[1] = Toxicity in BALB/c nude mouse xenografted in human MDA-MB-231 cells assessed as increase in ALP level at 5 mg/kg, iv administered once every 3 days for 27 days starting from day 3; type: organism-based; conditions: in vivo, 576 h, time 24 day
[2] = Toxicity in BALB/c nude mouse xenografted in human MDA-MB-231 cells assessed as increase in ALT level at 5 mg/kg, iv administered once every 3 days for 27 days starting from day 3; type: organism-based; conditions: in vivo, 576 h, time 24 day
[3] = Toxicity in BALB/c nude mouse xenografted with human MDA-MB-231 cells assessed as appearance of apoptotic/necrotic cells in heart at 5 mg/kg, iv administered once every 3 days for 27 days starting from day 3 by H and E staining based analysis; type: organism-based; conditions: in vivo, 576 h, time 24 day
[4] = Toxicity in BALB/c nude mouse xenografted with human MDA-MB-231 cells assessed as appearance of apoptotic/necrotic cells in liver at 5 mg/kg, iv administered once every 3 days for 27 days starting from day 3 by H and E staining based analysis; type: organism-based; conditions: in vivo, 576 h, time 24 day
[5] = Toxicity in BALB/c nude mouse xenografted in human MDA-MB-231 cells assessed as increase in AST level at 5 mg/kg, iv administered once every 3 days for 27 days; type: organism-based; conditions: in vivo, 576 h, time 24 day
SK-HEP1 = assay: Cytotoxicity against human SK-HEP1 cells assessed as decrease in cell viability incubated for 24 hrs by CCK-8 assay; type: functional, cell-based; conditions: SK-HEP1, 24 h
[6] = Toxicity in BALB/c nude mouse xenografted in human MDA-MB-231 cells assessed as increase in urea level at 5 mg/kg, iv administered once every 3 days for 27 days starting from day 3; type: organism-based; conditions: in vivo, 576 h, time 24 day
MDA-MB-231 [7] = assay: Induction of apoptosis in human MDA-MB-231 cells assessed as late apoptotic cells at 16 nM incubated for 24 hrs by AnnexinV-FITC/PI staining based flow cytometry (reference value: 0.034%); type: functional
MDA-MB-231 [8] = assay: Induction of apoptosis in human MDA-MB-231 cells at 10 uM incubated for 24 hrs by Annexin V-FITC/PI staining based flow cytometric analysis; type: functional, cell-based
MDA-MB-231 [9] = assay: Induction of apoptosis in human MDA-MB-231 cells assessed as early apoptotic cells at 16 nM incubated for 24 hrs by AnnexinV-FITC/PI staining based flow cytometry (reference value: 0%); type: functional
[10] = Toxicity in BALB/c nude mouse xenografted with human MDA-MB-231 cells assessed as body weight loss at 5 mg/kg, iv administered once every 3 days for 27 days starting from day 3; type: organism-based; conditions: in vivo, 576 h, time 24 day
[11] = Drug uptake in ROR1-positive human MDA-MB-231 cells assessed as increase in fluorescence intensity incubated for 0.25 to 2 hrs by Hoechst 33342 staining based confocal fluorescence microscopic analysis; type: ADME, cell-based; conditions: time 0.25-2 hrs
MDA-MB-231 [12] = assay: Antitumor activity against human MDA-MB-231 cells xenografted in BALB/c nude mouse assessed as reduction in tumor volume at 5 mg/kg, iv measured after first injection starting from day 3 on day 6; type: functional, organism-based; conditions: time 3.0 day
[13] = Cytotoxicity against human MCF-10A cells assessed as decrease in cell viability incubated for 24 hrs by CCK-8 assay; type: toxicity, cell-based
MDA-MB-231 [14] = assay: Antitumor activity against human MDA-MB-231 cells xenografted in BALB/c nude mouse assessed as tumor growth inhibition at 5 mg/kg, iv administered once every 3 days for 27 days starting from day 3; type: functional, organism-based; conditions: time 24.0 day
MDA-MB-231 [15] = assay: Cytotoxicity against ROR1-positive human MDA-MB-231 cells assessed as decrease in cell viability incubated for 24 hrs by CCK-8 assay; type: functional, cell-based; conditions: MDA-MB-231, 24 h
[16] = Toxicity in BALB/c nude mouse xenografted with human MDA-MB-231 cells assessed as appearance of apoptotic/necrotic cells in kidney at 5 mg/kg, iv administered once every 3 days for 27 days starting from day 3 by H and E staining based analysis; type: organism-based; conditions: in vivo, 576 h, time 24 day
MDA-MB-231 [17] = assay: Induction of apoptosis in human MDA-MB-231 cells assessed as necrotic cells at 16 nM incubated for 24 hrs by AnnexinV-FITC/PI staining based flow cytometry (reference value: 0.034%); type: functional
MDA-MB-231 [18] = assay: Induction of apoptosis in human MDA-MB-231 cells assessed as viable cells at 16 nM incubated for 24 hrs by AnnexinV-FITC/PI staining based flow cytometry (reference value: 99.9%); type: functional; conditions: read-out: Activity
[19] = Toxicity in BALB/c nude mouse xenografted with human MDA-MB-231 cells assessed as appearance of apoptotic/necrotic cells in lungs at 5 mg/kg, iv administered once every 3 days for 27 days starting from day 3 by H and E staining based analysis; type: organism-based; conditions: in vivo, 576 h, time 24 day
[20] = molecular target: T1, Inactive tyrosine-protein kinase transmembrane receptor ROR1 (Homo sapiens, UniProt Q01973); assay: Binding affinity to N-terminal His/GST-tagged recombinant human ROR1 (453 to 783 residues) extracted from baculovirus infected insect cells assessed as dissociation constant by SPR analysis
T1 sequence (Q01973 whole entry, the tested form may be a part): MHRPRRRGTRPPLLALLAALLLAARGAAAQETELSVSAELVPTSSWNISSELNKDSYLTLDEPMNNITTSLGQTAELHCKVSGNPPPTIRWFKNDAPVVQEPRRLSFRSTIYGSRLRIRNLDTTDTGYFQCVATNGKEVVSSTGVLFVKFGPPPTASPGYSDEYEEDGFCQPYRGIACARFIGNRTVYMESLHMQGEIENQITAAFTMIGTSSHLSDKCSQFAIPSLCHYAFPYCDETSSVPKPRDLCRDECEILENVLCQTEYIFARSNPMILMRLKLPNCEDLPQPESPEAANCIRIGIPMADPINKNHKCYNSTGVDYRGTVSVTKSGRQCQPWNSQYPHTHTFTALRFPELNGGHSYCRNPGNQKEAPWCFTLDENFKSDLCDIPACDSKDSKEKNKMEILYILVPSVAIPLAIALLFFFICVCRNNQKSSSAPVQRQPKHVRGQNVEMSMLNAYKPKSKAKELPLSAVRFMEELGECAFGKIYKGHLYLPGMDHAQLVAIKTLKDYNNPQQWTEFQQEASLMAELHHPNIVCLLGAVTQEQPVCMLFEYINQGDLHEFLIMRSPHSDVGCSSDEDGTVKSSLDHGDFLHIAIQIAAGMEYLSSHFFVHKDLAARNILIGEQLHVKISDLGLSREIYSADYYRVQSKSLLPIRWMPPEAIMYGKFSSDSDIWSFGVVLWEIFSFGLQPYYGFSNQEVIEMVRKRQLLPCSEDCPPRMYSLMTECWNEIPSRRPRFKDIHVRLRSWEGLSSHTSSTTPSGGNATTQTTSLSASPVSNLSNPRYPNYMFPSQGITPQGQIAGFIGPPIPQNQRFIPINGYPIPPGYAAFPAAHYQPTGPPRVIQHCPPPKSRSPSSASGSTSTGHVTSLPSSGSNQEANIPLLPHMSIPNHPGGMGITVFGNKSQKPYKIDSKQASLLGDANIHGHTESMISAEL

[21] = Drug uptake in BALB/c nude mouse tumor xenografted with human MDA-MB-231 cells assessed as increase in fluorescence signal administered as indocyanine green dye conjugate and measured after 1 hrs by ex-vivo imaging analysis; type: ADME, tissue-based, Neoplasm
[22] = molecular target: T1, Inactive tyrosine-protein kinase transmembrane receptor ROR1; assay: Binding affinity to ROR1 positive human MDA-MB-231 cells at 10 uM administered as FITC-labeled compound and measured after 30 mins by Hoechst 33342 staining based confocal fluorescence microscopic analysis; type: cell-based
[23] = Drug uptake in BALB/c nude mouse tumor xenografted with human MDA-MB-231 cells assessed as increase in fluorescence signal administered as indocyanine green dye conjugate and measured after 0.5 hrs by invivo imaging analysis; type: ADME, tissue-based, Neoplasm; conditions: in vivo
[24] = Drug distribution in BALB/c nude mouse tumor xenografted with human MDA-MB-231 cells assessed as increase in fluorescence signal administered as indocyanine green dye conjugate and measured after 1 hrs by DAPI staining based immunofluorescence analysis; type: ADME, tissue-based, Neoplasm; conditions: in vivo
[25] = Drug uptake in BALB/c nude mouse liver xenografted with human MDA-MB-231 cells assessed as increase in fluorescence signal administered as indocyanine green dye conjugate and measured after 1 hrs by ex-vivo imaging analysis; type: ADME, tissue-based
[26] = Drug penetration in human MDA-MB-231 cell spheroids assessed as increase in penetration rate at 10 uM administered as FITC-labeled compound and measured at 0.5 hrs by dual-color in vivo high-speed two-photon imaging system; type: ADME; conditions: mda-mb-231, 0.5 h
[27] = Drug uptake in ROR1 positive human MDA-MB-231 cells administered as FITC-labeled compound and measured after 30 to 120 mins by Hoechst 33342 staining based confocal fluorescence microscopic analysis; type: ADME, cell-based; conditions: time 30-120 min
[28] = Drug penetration in human MDA-MB-231 cell spheroids assessed as fluorescence penetration rate at 10 uM administered as FITC-labeled compound and measured at 1 hrs by dual-color in vivo high-speed two-photon imaging system; type: ADME; conditions: mda-mb-231, 1 h
Homo sapiens = species on record: Homo sapiens; assay: Binding affinity to CD16A (unknown origin) by SPR analysis
MCF7 = assay: Binding affinity to ROR1 negative human MCF7 cells at 10 uM administered as FITC-labeled compound and measured after 30 mins by Hoechst 33342 staining based confocal fluorescence microscopic analysis; type: functional, cell-based
[29] = Drug uptake in BALB/c nude mouse kidney xenografted with human MDA-MB-231 cells assessed as increase in fluorescence signal administered as indocyanine green dye conjugate and measured after 1 hrs by ex-vivo imaging analysis; type: ADME, tissue-based

Drug uptake [11]: Active
Compound: COc1cccc2c1C(=O)c1c(O)c3c(c(O)c1C2=O)C[C@@](O)(C(=O)CO)C[C@@H]3O[C@H]1C[C@H](N)[C@H](O)[C@H](C)O1 [DOXORUBICIN]
Activity [1]: Toxic
Activity [2]: Toxic
Activity [3]: Toxic
Activity [4]: Toxic
Activity [5]: Toxic
IC50 (SK-HEP1): 0.028 µM
Activity [6]: Toxic
Activity (MDA-MB-231 [7]): 3.25%
Activity (MDA-MB-231 [8]): Active; Exhibited Apoptosis Mostly In Late Stage
Activity (MDA-MB-231 [9]): 24.9%
Activity [10]: Toxic
Activity (MDA-MB-231 [12]): inactive
IC50 at 24 h [13]: 0.121 µM
Activity (MDA-MB-231 [14]): Not active; Poor Antitumor Effect Observed
IC50 (MDA-MB-231 [15]): 0.183 µM
Activity [16]: Toxic
Activity (MDA-MB-231 [17]): 0.39%
viability at 0.016 µM (MDA-MB-231 [18]): 71.5%
Activity [19]: Toxic

Kd [20]: 0.00157 µM
Drug uptake [21]: Active
Activity [22]: Active
Drug uptake [23]: Active
Drug uptake [24]: Active
Drug uptake [25]: Active
Drug uptake [26]: Active
Drug uptake [27]: Active
Drug uptake [28]: ~ 100%
Drug uptake [29]: Active
Compound: H-SDINDRQIPGYSTYWGDF-NH2
Activity (Homo sapiens): Not active; Abnormal Binding Affinity Curves Observed
Activity (MCF7): inactive
